Source: publication PMC4851326, “Pharmacologic Comparison of Clinical Neutral Endopeptidase Inhibitors in a Rat Model of Acute Secretory Diarrhea” (The Journal of Pharmacology and Experimental Therapeutics, 2016)

How the values were obtained:
Details in all cases: recombinant purified human enzyme; for prodrugs the active form was tested
aminopeptidase N = biological target: T1, aminopeptidase N (Homo sapiens, UniProt P15144); test: Purified peptidase assay, APN; assay type: biochemical
T1 construct: purchased R&D Systems (Minneapolis, MN)
T1 sequence (P15144 whole entry): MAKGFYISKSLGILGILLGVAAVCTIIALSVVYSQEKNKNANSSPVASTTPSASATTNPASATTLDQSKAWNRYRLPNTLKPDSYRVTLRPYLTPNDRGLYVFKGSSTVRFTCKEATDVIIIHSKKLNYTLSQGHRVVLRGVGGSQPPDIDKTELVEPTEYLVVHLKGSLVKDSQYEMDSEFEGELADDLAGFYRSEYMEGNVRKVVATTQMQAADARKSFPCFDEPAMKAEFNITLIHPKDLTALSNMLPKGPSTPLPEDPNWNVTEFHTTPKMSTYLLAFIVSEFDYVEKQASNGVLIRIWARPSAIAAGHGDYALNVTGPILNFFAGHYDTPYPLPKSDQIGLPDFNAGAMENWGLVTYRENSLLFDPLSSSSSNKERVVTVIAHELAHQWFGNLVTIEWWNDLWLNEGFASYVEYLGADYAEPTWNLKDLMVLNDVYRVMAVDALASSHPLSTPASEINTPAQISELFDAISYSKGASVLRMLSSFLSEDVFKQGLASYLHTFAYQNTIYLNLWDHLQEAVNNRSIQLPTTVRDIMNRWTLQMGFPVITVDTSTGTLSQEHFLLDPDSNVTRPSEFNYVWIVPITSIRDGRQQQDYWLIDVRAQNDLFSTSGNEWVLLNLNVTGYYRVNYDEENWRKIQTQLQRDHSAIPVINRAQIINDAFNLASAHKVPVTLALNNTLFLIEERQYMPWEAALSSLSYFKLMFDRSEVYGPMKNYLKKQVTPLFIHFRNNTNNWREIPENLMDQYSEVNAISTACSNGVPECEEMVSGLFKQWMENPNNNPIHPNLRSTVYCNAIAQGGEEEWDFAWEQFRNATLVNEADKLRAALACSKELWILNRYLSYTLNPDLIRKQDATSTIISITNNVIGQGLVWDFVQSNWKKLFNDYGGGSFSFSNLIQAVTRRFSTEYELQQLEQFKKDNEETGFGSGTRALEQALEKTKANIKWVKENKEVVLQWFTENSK
Procedure: (§1) Purified recombinant human enzymes were purchased from R&D Systems (Minneapolis, MN). […] Each substrate was diluted to 100 μM in the assay buffer recommended for each enzyme by the supplier. […] To these, 5 μl of diluted enzyme was added, followed by 10 μl of the quenched peptide substrate. The plates were incubated at 37°C until at least 10% substrate turnover or 5 μM product had formed. Fluorescence was measured using a Tecan Safire II (Excitation 320 nm/Emission 420 nm). Each plate included a standard curve of reaction product and positive (no enzyme) and negative (dimethyl sulfoxide vehicle) controls. Dose-response data were plotted and inhibition values (IC50) determined by linear regression analysis using GraphPad Prism (GraphPad Software, La Jolla, CA).

ECE-2 = biological target: T2, ECE-2 (Homo sapiens, UniProt P0DPD6); test: Purified peptidase assay, ECE-2; assay type: biochemical
T2 construct: purchased R&D Systems (Minneapolis, MN)
T2 sequence (P0DPD6 1-811): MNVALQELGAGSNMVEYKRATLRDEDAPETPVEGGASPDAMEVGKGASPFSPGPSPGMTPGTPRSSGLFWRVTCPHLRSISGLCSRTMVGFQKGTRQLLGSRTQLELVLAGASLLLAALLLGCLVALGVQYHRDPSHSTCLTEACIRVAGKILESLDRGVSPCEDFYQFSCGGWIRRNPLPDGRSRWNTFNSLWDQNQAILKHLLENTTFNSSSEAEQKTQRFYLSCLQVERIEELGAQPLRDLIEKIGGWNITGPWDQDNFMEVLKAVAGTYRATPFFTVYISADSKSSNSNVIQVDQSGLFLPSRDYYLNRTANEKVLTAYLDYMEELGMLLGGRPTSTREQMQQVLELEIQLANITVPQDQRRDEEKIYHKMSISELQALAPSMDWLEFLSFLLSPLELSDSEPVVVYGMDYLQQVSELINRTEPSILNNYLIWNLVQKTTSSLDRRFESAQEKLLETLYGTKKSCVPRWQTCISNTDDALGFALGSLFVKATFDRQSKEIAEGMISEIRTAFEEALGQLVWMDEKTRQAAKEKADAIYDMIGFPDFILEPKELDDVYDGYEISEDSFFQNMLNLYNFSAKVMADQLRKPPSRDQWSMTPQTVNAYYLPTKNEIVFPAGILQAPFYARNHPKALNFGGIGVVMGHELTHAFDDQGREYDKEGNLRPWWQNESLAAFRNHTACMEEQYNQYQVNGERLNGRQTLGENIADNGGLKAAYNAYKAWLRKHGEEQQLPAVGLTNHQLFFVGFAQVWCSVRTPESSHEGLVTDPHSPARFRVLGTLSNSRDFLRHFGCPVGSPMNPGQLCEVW
Procedure: as §1

ECE-1 = biological target: T3, ECE-1 (Homo sapiens, UniProt P42892); test: biochemical
T3 construct: purchased R&D Systems (Minneapolis, MN)
T3 sequence (P42892 1-770): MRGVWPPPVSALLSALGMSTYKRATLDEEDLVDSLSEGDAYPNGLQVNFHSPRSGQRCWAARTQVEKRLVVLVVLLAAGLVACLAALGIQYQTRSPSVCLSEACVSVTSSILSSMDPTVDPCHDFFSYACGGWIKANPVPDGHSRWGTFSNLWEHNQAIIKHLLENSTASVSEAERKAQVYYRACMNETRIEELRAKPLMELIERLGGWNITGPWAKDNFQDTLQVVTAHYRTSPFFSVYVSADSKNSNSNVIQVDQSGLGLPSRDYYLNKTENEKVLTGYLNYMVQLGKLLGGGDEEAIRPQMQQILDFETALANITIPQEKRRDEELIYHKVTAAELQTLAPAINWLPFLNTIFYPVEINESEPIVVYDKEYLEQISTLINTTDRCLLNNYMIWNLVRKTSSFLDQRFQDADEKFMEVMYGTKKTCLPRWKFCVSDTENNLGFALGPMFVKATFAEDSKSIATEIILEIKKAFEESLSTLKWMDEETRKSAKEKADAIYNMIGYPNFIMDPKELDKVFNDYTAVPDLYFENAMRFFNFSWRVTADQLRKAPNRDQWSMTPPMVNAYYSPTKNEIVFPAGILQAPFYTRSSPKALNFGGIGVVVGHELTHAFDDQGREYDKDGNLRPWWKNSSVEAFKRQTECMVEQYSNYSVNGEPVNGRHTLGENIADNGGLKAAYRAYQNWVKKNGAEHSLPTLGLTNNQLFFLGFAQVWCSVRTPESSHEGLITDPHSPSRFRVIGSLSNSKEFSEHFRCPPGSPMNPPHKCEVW
Procedure: as §1

Cc1nc2ccc(CCCNC(=O)C3(C[C@@H](C)C(=O)O)CCCC3)cc2s1 [UK-505,749, (R)-2-methyl-3-(1-((3-(2-methylbenzo[d]thiazol-6-yl)propyl)carbamoyl)cyclopentyl)propanoic acid]
IC50 (aminopeptidase N): > 100 µM
IC50 (ECE-2): 15 µM
IC50 (ECE-1): 3.3 µM
